Data on seven compounds can be found in PubChem BioAssay (NCI).

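Growth conditions: 96-well plates. Treatment: test compound, 48 hours, 5 concentrations. Analysis: linear interpolation between bracketing concentrations; unreached endpoints set to highest concentration. Definition used: TGI = concentration required for complete inhibition of growth.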

Test systems include MDA-MB-435; CAKI-1 renal; SK-MEL-2 melanoma; RXF 393 renal; SK-MEL-28 melanoma; ACHN renal; NCI/ADR-RES ovarian; NCI-H460 lung; SW-620 colon; SNB-19 CNS; HCT-15 colon; SK-OV-3 ovarian; KM12 colon; RPMI-8226 leukemia; K-562 leukemia; SN12C renal; MOLT-4 leukemia; MALME-3M melanoma; HOP-62 NSCLC.
Assay in all cases: NCI anticancer screen, dose series, 48 h

Consider `CCc1n[nH]c(=O)n1-n1c(C)ccc1C`, for which the TGI with MDA-MB-435, in the assay with CAKI-1 renal, with SK-MEL-2 melanoma, in the assay on RXF 393 renal, in the assay on SK-MEL-28 melanoma and in the assay on ACHN renal was greater than 100 µM each time. For the same compound, the TGI in the assay on NCI/ADR-RES ovarian, in the assay with NCI-H460 lung, in the assay on SW-620 colon, in the assay with SNB-19 CNS, with HCT-15 colon and in the assay with SK-OV-3 ovarian was greater than 100 µM each time. Moreover, the TGI with KM12 colon, in the assay with RPMI-8226 leukemia, in the assay with K-562 leukemia, in the assay on SN12C renal, in the assay on MOLT-4 leukemia and in the assay on MALME-3M melanoma was greater than 100 µM throughout. In addition, in the assay on HOP-62 NSCLC, the TGI is greater than 100 µM.

As to `C[C@H]1[C@H]2[C@H](C[C@@]3(C)C4=CC[C@H]5C(C)(C)[C@@H](OC6OCC(O)C(O)C6O)CC[C@@]56C[C@@]46CC[C@]23C)O[C@@]2(O)[C@@H]1OC(C)(C)[C@H]2O` (stereo partly drawn), the TGI with MDA-MB-435 was 2.17 µM; in the assay on CAKI-1 renal, 5.57 µM; with SK-MEL-2 melanoma, 11.5 µM; with RXF 393 renal, 3.71 µM; in the assay on SK-MEL-28 melanoma it was 6.23 µM; in the assay on ACHN renal, 6.35 µM. In addition, the TGI in the assay on NCI/ADR-RES ovarian is 9.94 µM; in the assay with NCI-H460 lung, 7.83 µM; in the assay on SW-620 colon it was 3.74 µM; in the assay with SNB-19 CNS it was 8.4 µM; in the assay with HCT-15 colon it was 3.43 µM; with SK-OV-3 ovarian it was 4.55 µM. Besides, the TGI with KM12 colon was 4.12 µM; in the assay with RPMI-8226 leukemia it was 4.68 µM; with K-562 leukemia, 50 µM; in the assay with SN12C renal it was 2.75 µM; with MOLT-4 leukemia it was 24.2 µM; with MALME-3M melanoma, 3.79 µM. This compound gave a TGI in the assay on HOP-62 NSCLC of 5.7 µM.

`COC(=O)NCCc1[nH]nc2c1C(=O)C=C(Nc1ccccc1OC)C2=O`: the TGI in the assay on MDA-MB-435 is 30.8 µM; with CAKI-1 renal it was 94.6 µM; with SK-MEL-2 melanoma, greater than 100 µM; with RXF 393 renal, greater than 100 µM; with SK-MEL-28 melanoma, 95.9 µM; in the assay with ACHN renal, greater than 100 µM. For the same compound, the TGI is 52.1 µM with NCI/ADR-RES ovarian; greater than 100 µM in the assay on NCI-H460 lung; 47.8 µM in the assay on SW-620 colon; greater than 100 µM in the assay on SNB-19 CNS; greater than 100 µM in the assay on HCT-15 colon; greater than 100 µM with SK-OV-3 ovarian. The TGI was 64.4 µM with KM12 colon; greater than 100 µM in the assay with RPMI-8226 leukemia; greater than 100 µM with K-562 leukemia; greater than 100 µM in the assay with SN12C renal; 55.1 µM in the assay with MOLT-4 leukemia; 28 µM in the assay with MALME-3M melanoma. The compound further returned a TGI with HOP-62 NSCLC greater than 100 µM.

Take `Cc1c(CN2CCOCC2)c(CN2CCOCC2)c(C)n1-c1ccc(Cl)cn1`: the TGI with MDA-MB-435, in the assay on CAKI-1 renal, in the assay on SK-MEL-2 melanoma, with RXF 393 renal, with SK-MEL-28 melanoma and with ACHN renal was greater than 100 µM in each case. Besides, the TGI in the assay with NCI/ADR-RES ovarian, with NCI-H460 lung, in the assay on SW-620 colon, in the assay on SNB-19 CNS, with HCT-15 colon and in the assay on SK-OV-3 ovarian was greater than 100 µM each time. Further, the TGI in the assay with KM12 colon, with RPMI-8226 leukemia, with K-562 leukemia, in the assay with SN12C renal, in the assay on MOLT-4 leukemia and with MALME-3M melanoma was greater than 100 µM in each case. The compound also had a TGI in the assay with HOP-62 NSCLC greater than 100 µM.

`O=C1NC(=Nc2ccccc2Cl)N/C1=C\c1c(Cl)cccc1Cl`: the TGI with MDA-MB-435 was greater than 100 µM; with CAKI-1 renal it was greater than 100 µM; in the assay on SK-MEL-2 melanoma, greater than 100 µM; in the assay on RXF 393 renal, 68 µM; in the assay on SK-MEL-28 melanoma, greater than 100 µM; in the assay with ACHN renal, greater than 100 µM. The TGI in the assay with NCI/ADR-RES ovarian is 86 µM; in the assay with NCI-H460 lung it was 68.2 µM; with SW-620 colon it was greater than 100 µM; in the assay with SNB-19 CNS, greater than 100 µM; with HCT-15 colon, greater than 100 µM; in the assay on SK-OV-3 ovarian it was greater than 100 µM. Besides, the TGI with KM12 colon was greater than 100 µM; in the assay on RPMI-8226 leukemia, 56.6 µM; with K-562 leukemia, greater than 100 µM; in the assay on SN12C renal it was 84.6 µM; with MOLT-4 leukemia it was greater than 100 µM; in the assay with MALME-3M melanoma, greater than 100 µM. For the same compound, in the assay with HOP-62 NSCLC, the TGI is greater than 100 µM.

`O=[N+]([O-])c1ccccc1S(=O)(=O)c1cccc2c1NCCC2`: the TGI in the assay with MDA-MB-435, with CAKI-1 renal, in the assay on SK-MEL-2 melanoma, in the assay on RXF 393 renal, with SK-MEL-28 melanoma and in the assay with ACHN renal was greater than 100 µM in each case. Moreover, the TGI in the assay on NCI/ADR-RES ovarian, in the assay on NCI-H460 lung, in the assay on SW-620 colon, with SNB-19 CNS, in the assay with HCT-15 colon and with SK-OV-3 ovarian was greater than 100 µM in each case. Moreover, the TGI with KM12 colon, in the assay on RPMI-8226 leukemia, with K-562 leukemia, in the assay on SN12C renal, in the assay on MOLT-4 leukemia and with MALME-3M melanoma was greater than 100 µM each time. Further, the TGI in the assay on HOP-62 NSCLC is greater than 100 µM.

With `O=c1c2ccccc2nc(-c2ccccc2)n1/N=C/c1ccccc1[N+](=O)[O-]`, the TGI with MDA-MB-435 is greater than 100 µM; in the assay with CAKI-1 renal, greater than 100 µM; in the assay with SK-MEL-2 melanoma it was greater than 100 µM; in the assay with RXF 393 renal, 80.4 µM; in the assay on SK-MEL-28 melanoma, greater than 100 µM; with ACHN renal it was greater than 100 µM. The TGI is greater than 100 µM with NCI/ADR-RES ovarian; greater than 100 µM with NCI-H460 lung; greater than 100 µM with SW-620 colon; 56.7 µM in the assay on SNB-19 CNS; greater than 100 µM with HCT-15 colon; greater than 100 µM in the assay with SK-OV-3 ovarian. Also, the TGI with KM12 colon, in the assay with RPMI-8226 leukemia, in the assay with K-562 leukemia, in the assay with SN12C renal, with MOLT-4 leukemia and with MALME-3M melanoma was greater than 100 µM throughout. In addition, the TGI with HOP-62 NSCLC amounted to 37.1 µM.
